According to the supplement of paper PMC12317010:
Where a name gives a salt, the structure may show the parent alone.

Experiment: collision cross section in nitrogen (drift tube, single-field); higher = larger gas-phase ion size
[1] = ion type: [M+H], ion source: APCI, ion mode: Positive
[2] = ion type: [M+H], ion source: ESI, ion mode: Positive
[3] = ion type: [M+Na], ion source: ESI, ion mode: Positive
[4] = ion type: [M-H], ion source: ESI, ion mode: Negative
[5] = ion type: [M+], ion source: APCI, ion mode: Positive
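Also: chemical standards at 10 µM analysed by drift tube IMS-QTOF MS in about 3.95 torr nitrogen, mean of duplicate injections differing ≤1%, mass error below 10 ppm.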

With `Clc1ccc(COC(Cn2ccnc2)c2ccc(Cl)cc2Cl)cc1` (centres undefined) [Econazole nitrate] as the compound, how does the “collision cross section in nitrogen” value [1] read?
Its value is 185.8 Å².

And the “collision cross section in nitrogen” value [2]?
The value was 185.7 Å².

And the “collision cross section in nitrogen” value [3]?
Its value is 193.2 Å².

Which “collision cross section in nitrogen” value [3] does the source give for `NNC(=O)CCCCC(=O)NN` [Hexanedihydrazide] here?
The value was 141.5 Å².

What about the “collision cross section in nitrogen” value [4] of the same compound?
Its value is 138.4 Å².

For `CNC(=O)Oc1cc(C)cc(C(C)C)c1` [Promecarb], which “collision cross section in nitrogen” value [3] is on record?
The value was 157.5 Å².

Which “collision cross section in nitrogen” value [3] does the source give for `Cc1ccccc1CO[C@@H]1C[C@@]2(C(C)C)CC[C@]1(C)O2` [Cinmethylin] here?
The value was 169.7 Å².

Which “collision cross section in nitrogen” value [3] does the source give for `CCCCOCCOC(=O)c1ccccc1C(=O)OCCOCCCC` [Bis(2-butoxyethyl) phthalate] here?
The value was 187.5 Å².

For `CCCOc1sc(C(=O)N2CCC(c3cc(CN)ccc3F)CC2)c(C)c1Br` [AVE8923], which “collision cross section in nitrogen” value [1] is on record?
Its value is 197.2 Å².

And the “collision cross section in nitrogen” value [3]?
Its value is 204.9 Å².

Which “collision cross section in nitrogen” value [4] does the source give for `O=[N+]([O-])c1ccccc1O` [2-Nitrophenol] here?
The value was 121.2 Å².

With `CCCCOC(=O)CCCCCCCCC(=O)OCCCC` [Dibutyl decanedioate] as the compound, how does the “collision cross section in nitrogen” value [3] read?
Its value is 193.5 Å².

Which “collision cross section in nitrogen” value [1] does the source give for `CC[C@H]1OC(=O)[C@H](C)[C@@H](O[C@H]2C[C@@](C)(OC)[C@@H](O)[C@H](C)O2)[C@H](C)[C@@H](O[C@@H]2O[C@H](C)C[C@H](N(C)C)[C@H]2O)[C@](C)(O)C[C@@H](C)C(=NOCOCCOC)[C@H](C)[C@@H](O)[C@]1(C)O` [Roxithromycin] here?
Its value is 277.7 Å².

What about the “collision cross section in nitrogen” value [2] of the same compound?
The value was 276.9 Å².

And the “collision cross section in nitrogen” value [3]?
The value was 280.7 Å².

What about the “collision cross section in nitrogen” value [5] of the same compound?
The value was 276.3 Å².

What about the “collision cross section in nitrogen” value [4] of the same compound?
The value was 282.3 Å².

Which “collision cross section in nitrogen” value [4] does the source give for `CCCCCCCCP(=O)(O)O` [Octylphosphonic acid] here?
The value was 149.9 Å².

Which “collision cross section in nitrogen” value [4] does the source give for `CCCCN(CC)c1c([N+](=O)[O-])cc(C(F)(F)F)cc1[N+](=O)[O-]` [Benfluralin] here?
The value was 168.5 Å².

Which “collision cross section in nitrogen” value [3] does the source give for `CCNC(=O)[C@@H](C)OC(=O)Nc1ccccc1` [Carbetamide] here?
Its value is 167.4 Å².

For `O=c1n(CCO)c(=O)n(CCO)c(=O)n1CCO` [Tris(2-hydroxyethyl) isocyanurate], which “collision cross section in nitrogen” value [3] is on record?
Its value is 159.3 Å².

Which “collision cross section in nitrogen” value [4] does the source give for `Nc1ccc(F)c([N+](=O)[O-])c1` [4-Fluoro-3-nitroaniline] here?
The value was 121.9 Å².

Which results are given for `CCOc1ccc(NC(N)=O)cc1` [Dulcin]?
collision cross section in nitrogen [1]: 144.5 Å²; collision cross section in nitrogen [2]: 144.1 Å²; collision cross section in nitrogen [3]: 149.7 Å²

With `CCOC(=O)CC(CC(=O)OCC)(OC(C)=O)C(=O)OCC` [Citric acid, triethyl ester, acetate] as the compound, how does the “collision cross section in nitrogen” value [3] read?
The value was 175.4 Å².

With `CC1(C)O[C@@H]2[C@@H](CO[C@@]3(COS(N)(=O)=O)OC(C)(C)O[C@@H]23)O1` [Topiramate] as the compound, how does the “collision cross section in nitrogen” value [3] read?
The value was 171.7 Å².

What about the “collision cross section in nitrogen” value [4] of the same compound?
The value was 174.7 Å².

Which “collision cross section in nitrogen” value [2] does the source give for `C[C@@H]1C[C@H]2[C@@H]3CCC4=CC(=O)C=C[C@]4(C)[C@@]3(F)[C@@H](O)C[C@]2(C)[C@@]1(O)C(=O)CO` [Dexamethasone] here?
The value was 177.6 Å².

What about the “collision cross section in nitrogen” value [3] of the same compound?
Its value is 216.8 Å².

For `CC1=NN(c2cc(S(=O)(=O)O)ccc2Cl)C(=O)C1/N=N/c1ccccc1` (centres undefined) [C.I. Acid Yellow 34, monosodium salt], which “collision cross section in nitrogen” value [2] is on record?
Its value is 196.9 Å².

And the “collision cross section in nitrogen” value [4]?
Its value is 202.7 Å².

Which “collision cross section in nitrogen” value [1] does the source give for `CCOc1cccc(-n2cc(C(=O)N3CCN(c4cc(C(=O)O)c5ccccc5c4)CC3)nc2-c2ccc(C)cc2)c1` here?
Its value is 228.4 Å².

What about the “collision cross section in nitrogen” value [2] of the same compound?
Its value is 228.8 Å².

And the “collision cross section in nitrogen” value [3]?
The value was 233.2 Å².

What about the “collision cross section in nitrogen” value [4] of the same compound?
Its value is 232.5 Å².

Which “collision cross section in nitrogen” value [1] does the source give for `O=Nc1ccc(Nc2ccccc2)cc1` [4-Nitrosodiphenylamine] here?
The value was 144.3 Å².

What about the “collision cross section in nitrogen” value [2] of the same compound?
Its value is 144.2 Å².

What about the “collision cross section in nitrogen” value [4] of the same compound?
Its value is 144.7 Å².

For `Cc1cc(Cl)ccc1OCC(=O)O`, which “collision cross section in nitrogen” value [4] is on record?
Its value is 146.1 Å².

For `Oc1ccc2ccccc2c1` [2-Naphthalenol], which “collision cross section in nitrogen” value [4] is on record?
The value was 128.7 Å².

For `CCCCC(CC)COP(=O)(OCC(CC)CCCC)OCC(CC)CCCC` (centres undefined) [Tris(2-ethylhexyl) phosphate], which “collision cross section in nitrogen” value [3] is on record?
The value was 231.9 Å².

For `O=C(O)COCCN1CCN(C(c2ccccc2)c2ccc(Cl)cc2)CC1` (centres undefined) [Cetirizine hydrochloride (1:2)], which “collision cross section in nitrogen” value [1] is on record?
Its value is 200 Å².

And the “collision cross section in nitrogen” value [2]?
Its value is 200.3 Å².

And the “collision cross section in nitrogen” value [3]?
The value was 195.6 Å².

And the “collision cross section in nitrogen” value [4]?
Its value is 195 Å².

Which “collision cross section in nitrogen” value [5] does the source give for `c1ccc2c(c1)Nc1ccccc1S2` [Phenothiazine] here?
Its value is 136 Å².

With `CCCCOP(=O)(CCCC)OCCCC` [Dibutyl butylphosphonate] as the compound, how does the “collision cross section in nitrogen” value [3] read?
Its value is 181.8 Å².

For `Oc1c(Cl)cc(Cl)c(Cl)c1Cl` [2,3,4,6-Tetrachlorophenol], which “collision cross section in nitrogen” value [4] is on record?
The value was 133.8 Å².

Which results are given for `c1ccc(CCCc2ccncc2)cc1` [4-(3-Phenylpropyl)pyridine]?
collision cross section in nitrogen [1]: 145.9 Å²; collision cross section in nitrogen [2]: 146.1 Å²

With `CN(C)c1ccc(/N=N/c2ccccc2C(=O)O)cc1` [Methyl red] as the compound, how does the “collision cross section in nitrogen” value [1] read?
The value was 163.1 Å².

What about the “collision cross section in nitrogen” value [2] of the same compound?
The value was 163 Å².

What about the “collision cross section in nitrogen” value [3] of the same compound?
The value was 179.2 Å².

And the “collision cross section in nitrogen” value [4]?
The value was 175.2 Å².

What does the source list for `CC1(C(=O)Nc2ccc(O)c(Cl)c2Cl)CCCCC1` [Fenhexamid]?
collision cross section in nitrogen [1]: 166.7 Å²; collision cross section in nitrogen [2]: 166.4 Å²; collision cross section in nitrogen [4]: 172.6 Å²

Which “collision cross section in nitrogen” value [4] does the source give for `[O-][Cl+]O` [Sodium chlorite] here?
Its value is 105.2 Å².

For `Oc1cccc(O)c1` [Resorcinol], which “collision cross section in nitrogen” value [4] is on record?
The value was 118.9 Å².

Which “collision cross section in nitrogen” value [3] does the source give for `CCN(CC)C(=S)SSC(=S)N(CC)CC` [Tetraethylthiuram disulfide] here?
Its value is 173.2 Å².

For `O=C1c2ccccc2C(=O)c2c(O)c(O)cc(O)c21` [Purpurin], which “collision cross section in nitrogen” value [4] is on record?
The value was 149 Å².

Which “collision cross section in nitrogen” value [1] does the source give for `CC(C)c1ccc2ncccc2c1` [6-(1-Methylethyl)quinoline] here?
Its value is 138 Å².

What about the “collision cross section in nitrogen” value [2] of the same compound?
Its value is 138.5 Å².

For `CCCCOC(=O)c1ccc(O)cc1` [Butylparaben], which “collision cross section in nitrogen” value [4] is on record?
The value was 149.4 Å².

With `[O-][n+]1ccc(Cl)cc1` [4-Chloropyridine 1-oxide] as the compound, how does the “collision cross section in nitrogen” value [2] read?
Its value is 121.6 Å².

And the “collision cross section in nitrogen” value [4]?
Its value is 117.2 Å².

Which “collision cross section in nitrogen” value [4] does the source give for `CCC(=O)O[C@H]1C[C@@H]2CC[C@@]1(C)C2(C)C` [Isobornyl propanoate] here?
Its value is 155.8 Å².

Which “collision cross section in nitrogen” value [2] does the source give for `Nc1c2c(nc3ccccc13)CCCC2` [Tacrine] here?
Its value is 142.7 Å².

And the “collision cross section in nitrogen” value [4]?
The value was 145.4 Å².

For `CN1[C@@H]2C[C@@H](OC(=O)[C@H](CO)c3ccccc3)C[C@H]1[C@@H]1O[C@@H]12` [Scopolamine hydrobromide], which “collision cross section in nitrogen” value [1] is on record?
Its value is 170.8 Å².

And the “collision cross section in nitrogen” value [2]?
Its value is 171.7 Å².

With `N=C(NCCCCCCNC(=N)NC(=N)Nc1ccc(Cl)cc1)NC(=N)Nc1ccc(Cl)cc1` [Chlorhexidine dihydrochloride] as the compound, how does the “collision cross section in nitrogen” value [1] read?
Its value is 222.7 Å².

And the “collision cross section in nitrogen” value [2]?
Its value is 222.9 Å².

What about the “collision cross section in nitrogen” value [3] of the same compound?
The value was 227.5 Å².

What about the “collision cross section in nitrogen” value [4] of the same compound?
The value was 233.2 Å².

With `CCCOC(=O)c1ccc(C(=O)OCCC)nc1` [Dipropyl 2,5-pyridinedicarboxylate] as the compound, how does the “collision cross section in nitrogen” value [1] read?
Its value is 163.2 Å².

What about the “collision cross section in nitrogen” value [2] of the same compound?
The value was 163.2 Å².

And the “collision cross section in nitrogen” value [3]?
Its value is 178.6 Å².

What does the source list for `O=C1OC2(c3ccccc31)c1cc(Br)c(O)c(Br)c1Oc1c2cc(Br)c(O)c1Br` [2',4',5',7'-Tetrabromofluorescein]?
collision cross section in nitrogen [2]: 204.7 Å²; collision cross section in nitrogen [4]: 208.7 Å²

Which results are given for `CNc1cnn(-c2cccc(C(F)(F)F)c2)c(=O)c1Cl` [Norflurazon]?
collision cross section in nitrogen [1]: 162.7 Å²; collision cross section in nitrogen [2]: 162.4 Å²; collision cross section in nitrogen [3]: 171.9 Å²; collision cross section in nitrogen [4]: 160.9 Å²

For `CC(C)(C)c1cc(/C=C2\SC(=N)NC2=O)cc(C(C)(C)C)c1O` [Darbufelone mesylate], which “collision cross section in nitrogen” value [1] is on record?
Its value is 188.3 Å².

And the “collision cross section in nitrogen” value [2]?
Its value is 188 Å².

And the “collision cross section in nitrogen” value [3]?
The value was 207.3 Å².

And the “collision cross section in nitrogen” value [4]?
The value was 186.1 Å².
